Test results reported in patent publication US20240391936A1, “TETRAHYDROTHIENO PYRIDINE DERIVATIVES AS DDRS INHIBITORS” (CHIESI FARMACEUTICI S.P.A., priority 2021, published 2024).
pIC50, pKi: −log10 of the molar value.

How the values were obtained:
DDR1 [1] = target: T1, DDR1 (Homo sapiens, UniProt Q08345); assay: DDR1 binding assay (LanthaScreen Europium Kinase Binding assay); set-up: purchased Carna Biosciences; conditions: binding assay, 5 nM DDR1, 20 nM Kinase Tracer 178; Ki from IC50 by Cheng-Prusoff; read-out: Ki DDR1
Method: (§1) DDR1 and DDR2 binding assays were performed using Life Technologies LanthaScreen™ Europium Kinase Binding assay. The compounds were incubated with 5 nM DDR1 (Carna Biosciences) or 5 nM DDR2 (Life Technologies) for 1 hour at room temperature in white 384-well OptiPlate (PerkinElmer), containing 20 nM or 10 nM Kinase Tracer 178 respectively and 2 nM Europium labelled anti-GST antibody (Life Technologies) in assay buffer (50 mM HEPES pH 7.5, 10 mM MgCl2, 1 mM EGTA and 0.01% BRIJ35).
(§2) The ratio of fluorescence emission 665 nm/615 nm after excitation at 340 nm was obtained using the Tecan Spark 20M plate reader. IC50 values were determined in GraphPad Prism 7.0 software, using 4 parameter model: log(inhibitor) vs. response. IC50 values were converted in Ki using the Cheng-Prusoff equation

DDR2 = target: T2, DDR2 (Homo sapiens, UniProt Q16832); assay: DDR2 binding assay (LanthaScreen Europium Kinase Binding assay); set-up: purchased Life Technologies; conditions: binding assay, 5 nM DDR2, 10 nM Kinase Tracer 178; Ki from IC50 by Cheng-Prusoff; read-out: Ki DDR2
T2 sequence (Q16832 22-855): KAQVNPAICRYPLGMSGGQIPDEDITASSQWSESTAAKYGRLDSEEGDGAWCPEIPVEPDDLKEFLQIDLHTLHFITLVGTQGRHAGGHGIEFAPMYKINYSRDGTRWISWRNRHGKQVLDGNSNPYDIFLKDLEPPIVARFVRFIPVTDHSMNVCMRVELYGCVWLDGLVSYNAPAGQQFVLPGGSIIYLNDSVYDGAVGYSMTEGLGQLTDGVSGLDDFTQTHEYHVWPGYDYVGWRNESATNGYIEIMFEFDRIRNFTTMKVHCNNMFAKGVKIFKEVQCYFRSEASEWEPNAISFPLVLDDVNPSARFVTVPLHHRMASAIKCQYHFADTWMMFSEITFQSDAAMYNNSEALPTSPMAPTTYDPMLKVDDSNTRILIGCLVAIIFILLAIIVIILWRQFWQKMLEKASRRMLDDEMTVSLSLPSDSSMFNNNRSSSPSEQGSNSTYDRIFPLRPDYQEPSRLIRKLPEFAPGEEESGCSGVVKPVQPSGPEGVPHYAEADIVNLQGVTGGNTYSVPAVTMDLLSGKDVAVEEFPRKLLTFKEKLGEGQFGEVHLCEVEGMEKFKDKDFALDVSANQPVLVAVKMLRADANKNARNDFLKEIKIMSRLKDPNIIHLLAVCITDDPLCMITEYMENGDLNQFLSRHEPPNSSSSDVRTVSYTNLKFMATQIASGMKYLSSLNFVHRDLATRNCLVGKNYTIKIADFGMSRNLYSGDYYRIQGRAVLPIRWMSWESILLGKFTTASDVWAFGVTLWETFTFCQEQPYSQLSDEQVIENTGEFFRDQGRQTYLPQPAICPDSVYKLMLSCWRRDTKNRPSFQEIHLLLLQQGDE
Method: as §1, §2

DDR1 [2] = target: T1, DDR1; assay: DDR1 cell based assay (PathHunter U2OS DDR1 assay); set-up: host or cells: U2OS-DDR1 (PathHunter); conditions: U2OS-DDR1 cells, bovine Type II Collagen 20 μg/ml
Method: The inhibition of DDR1 receptor activation by compounds was evaluated by PathHunter® U2OS DDR1 assay (Eurofins DiscoverX), according to the manufacturer's instructions. Briefly, U2OS-DDR1 cells were seeded in white 384-well plates at a density of 5000 cells/well and incubated for 2 hours at 37° C. and 5% CO2. Cells were then treated with compounds at different concentrations and incubated for 30 minutes, before stimulation with bovine Type II Collagen 20 μg/ml and incubation overnight at 37° C. and 5% CO2. PathHunter Detection Reagents were prepared according to the protocol provided by DiscoverX and 20 μl/well of this mix were added to each well. After incubating the plates for 1 hour at room temperature in the dark, luminescence signal was acquired with a plate reader. Raw data were normalized to vehicle control (0% for normalization) and positive control (100% for normalization; cells treated with 20 μg/ml collagen II) and IC50 parameters were calculated in GraphPad Prism 8.0 software, using sigmoidal dose-response curve fitting with variable slope.

T1 sequence (Q08345 19-913): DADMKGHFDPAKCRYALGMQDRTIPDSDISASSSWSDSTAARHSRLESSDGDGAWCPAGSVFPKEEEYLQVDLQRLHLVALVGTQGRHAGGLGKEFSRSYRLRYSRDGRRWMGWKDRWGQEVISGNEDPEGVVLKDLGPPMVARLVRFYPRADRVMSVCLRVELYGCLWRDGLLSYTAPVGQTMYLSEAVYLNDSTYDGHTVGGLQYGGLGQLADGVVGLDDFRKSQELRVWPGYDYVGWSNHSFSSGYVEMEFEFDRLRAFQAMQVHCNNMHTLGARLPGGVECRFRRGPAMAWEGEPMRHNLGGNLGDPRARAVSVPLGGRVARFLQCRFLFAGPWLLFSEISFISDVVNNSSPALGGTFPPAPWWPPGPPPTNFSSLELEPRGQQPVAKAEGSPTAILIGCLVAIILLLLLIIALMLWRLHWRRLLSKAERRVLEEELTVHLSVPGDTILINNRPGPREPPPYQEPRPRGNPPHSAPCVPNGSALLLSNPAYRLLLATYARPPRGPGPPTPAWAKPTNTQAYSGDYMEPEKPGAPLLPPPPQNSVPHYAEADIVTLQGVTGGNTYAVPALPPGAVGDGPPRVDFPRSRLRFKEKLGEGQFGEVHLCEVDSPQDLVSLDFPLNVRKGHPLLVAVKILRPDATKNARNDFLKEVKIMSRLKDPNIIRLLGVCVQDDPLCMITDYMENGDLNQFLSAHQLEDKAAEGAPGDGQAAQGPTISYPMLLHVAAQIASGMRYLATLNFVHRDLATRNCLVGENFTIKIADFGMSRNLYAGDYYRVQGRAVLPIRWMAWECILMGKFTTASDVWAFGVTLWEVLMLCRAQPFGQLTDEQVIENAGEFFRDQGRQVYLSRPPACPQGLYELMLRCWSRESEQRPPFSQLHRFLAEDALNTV

SMILES | pKi (DDR1 [1]) | pKi (DDR2) | pIC50 (DDR1 [2])
O=C(Nc1cccc(C(F)(F)F)c1)c1csc2c1CCN(C(=O)c1cnc3cc(OCCN4CCOCC4)ccn13)C2 [Example 139, 6-(7-(2-morpholinoethoxy)imidazo[1,2-a]pyridine-3-carbonyl)-N-(3-(trifluoromethyl)phenyl)-4,5,6,7-tetrahydrothieno[2,3-c]pyridine-3-carboxamide] | > 7.60 | > 7.60 | 7.30 to 7.60
CC1CN(C(=O)c2cnc3ccccn23)Cc2scc(C(=O)Nc3cccc(C(F)(F)F)c3)c21 (stereo not drawn) [Example 185, 6-(imidazo[1,2-a]pyridine-3-carbonyl)-4-methyl-N-(3-(trifluoromethyl)phenyl)-4,5,6,7-tetrahydrothieno[2,3-c]pyridine-3-carboxamide] | > 7.60 | > 7.60 | > 7.60
Cn1ccn2ncc(C(=O)N3CCc4c(C(=O)Nc5cncc(C(F)(F)F)c5)csc4C3)c12 [Example 143, 6-(1-methyl-1H-imidazo[1,2-b]pyrazole-7-carbonyl)-N-(5-(trifluoromethyl)pyridin-3-yl)-4,5,6,7-tetrahydrothieno[2,3-c]pyridine-3-carboxamide] | > 7.60 | > 7.60 | > 7.60
CN1CCN(CCOc2cc(NC(=O)c3csc4c3CCN(C(=O)c3cnc5ccccn35)C4)cc(C(F)(F)F)c2)CC1 [Example 62, 6-(imidazo[1,2-a]pyridine-3-carbonyl)-N-(3-(2-(4-methylpiperazin-1-yl)ethoxy)-5-(trifluoromethyl)phenyl)-4,5,6,7-tetrahydrothieno[2,3-c]pyridine-3-carboxamide] | > 7.60 | > 7.60 | 7.30 to 7.60
CN(C)Cc1ccc2ncc(C(=O)N3CCc4c(C(=O)Nc5cccc(C(F)(F)F)c5)csc4C3)n2c1 [Example 135, 6-(6-((dimethylamino)methyl)imidazo[1,2-a]pyridine-3-carbonyl)-N-(3-(trifluoromethyl)phenyl)-4,5,6,7-tetrahydrothieno[2,3-c]pyridine-3-carboxamide] | > 7.60 | 7.30 to 7.60 | 7.30 to 7.60
O=C(Nc1cc(CN2CCN(C3COC3)CC2)cc(C(F)(F)F)c1)c1csc2c1CCN(C(=O)c1cnc3ccccn13)C2 [Example 54, 6-(imidazo[1,2-a]pyridine-3-carbonyl)-N-(3-((4-(oxetan-3-yl)piperazin-1-yl)methyl)-5-(trifluoromethyl)phenyl)-4,5,6,7-tetrahydrothieno[2,3-c]pyridine-3-carboxamide] | > 7.60 | > 7.60 | 7.10 to 7.30
O=C(Nc1cccc(C(F)(F)F)c1)c1csc2c1CCN(C(=O)c1cnn3cccnc13)C2 [Example 94, 6-(pyrazolo[1,5-a]pyrimidine-3-carbonyl)-N-(3-(trifluoromethyl)phenyl)-4,5,6,7-tetrahydrothieno[2,3-c]pyridine-3-carboxamide] | > 7.60 | > 7.60 | 7.10 to 7.30
CN1CCN(Cc2cc(NC(=O)c3csc4c3CCN(C(=O)c3cnc5ccccn35)C4)cc(C(F)(F)F)c2)CC1=O [Example 59, 6-(imidazo[1,2-a]pyridine-3-carbonyl)-N-(3-((4-methyl-3-oxopiperazin-1-yl)methyl)-5-(trifluoromethyl)phenyl)-4,5,6,7-tetrahydrothieno[2,3-c]pyridine-3-carboxamide] | 7.30 to 7.60 | 7.30 to 7.60 | 7.30 to 7.60
O=C(Nc1cc(N2CCOCC2)cc(C(F)(F)F)c1)c1csc2c1CCN(C(=O)c1cnc3ccccn13)C2 [Example 181, 6-(imidazo[1,2-a]pyridine-3-carbonyl)-N-(3-morpholino-5-(trifluoromethyl)phenyl)-4,5,6,7-tetrahydrothieno [2,3-c]pyridine-3-carboxamide] | > 7.60 | > 7.60 | 7.30 to 7.60
CC(F)(F)c1cncc(NC(=O)c2csc3c2CCN(C(=O)c2cnn4ccncc24)C3)c1 [Example 122, N-(5-(1,1-difluoroethyl)pyridin-3-yl)-6-(pyrazolo[1,5-a]pyrazine-3-carbonyl)-4,5,6,7-tetrahydrothieno[2,3-c]pyridine-3-carboxamide] | > 7.60 | > 7.60 | 7.10 to 7.30

The next lines start with the values.

pKi (DDR1 [1]) | pKi (DDR2) | pIC50 (DDR1 [2]) | SMILES
> 7.60 | > 7.60 | 7.30 to 7.60 | CC(C)(C)c1cc(NC(=O)c2csc3c2CCN(C(=O)c2cnc4ccccn24)C3)n(Cc2ccccc2)n1 [Example 41, N-(1-benzyl-3-(tert-butyl)-1H-pyrazol-5-yl)-6-(imidazo[1,2-a]pyridine-3-carbonyl)-4,5,6,7-tetrahydrothieno[2,3-c]pyridine-3-carboxamide]
> 7.60 | > 7.60 | 7.10 to 7.30 | Cn1nc(C(C)(C)C)cc1NC(=O)c1csc2c1CCN(C(=O)c1cnc3ccc(F)cn13)C2 [Example 81, N-(3-(tert-butyl)-1-methyl-1H-pyrazol-5-yl)-6-(6-fluoroimidazo[1,2-a]pyridine-3-carbonyl)-4,5,6,7-tetrahydrothieno[2,3-c]pyridine-3-carboxamide]
> 7.60 | > 7.60 | > 7.60 | O=C(Nc1ccc(OCCO)c(C(F)(F)F)c1)c1csc2c1CCN(C(=O)c1cnc3ccccn13)C2 [Example 16, N-(4-(2-hydroxyethoxy)-3-(trifluoromethyl)phenyl)-6-(imidazo[1,2-a]pyridine-3-carbonyl)-4,5,6,7-tetrahydrothieno[2,3-c]pyridine-3-carboxamide]
> 7.60 | > 7.60 | 7.30 to 7.60 | CCC(C)(C)c1cc(NC(=O)c2csc3c2CCN(C(=O)c2cnc4ccccn24)C3)on1 [Example 119, 6-(imidazo[1,2-a]pyridine-3-carbonyl)-N-(3-(tert-pentyl)isoxazol-5-yl)-4,5,6,7-tetrahydrothieno[2,3-c]pyridine-3-carboxamide]
> 7.60 | > 7.60 | 7.30 to 7.60 | O=C(Nc1ccnc(C(F)(F)F)c1)c1csc2c1CCN(C(=O)c1cnc3ccccn13)C2 [Example 17, 6-(imidazo[1,2-a]pyridine-3-carbonyl)-N-(2-(trifluoromethyl)pyridin-4-yl)-4,5,6,7-tetrahydrothieno[2,3-c]pyridine-3-carboxamide]
> 7.60 | > 7.60 | 7.10 to 7.30 | CC(C)c1cc(NC(=O)c2csc3c2CCN(C(=O)c2cnc4ccccn24)C3)n(C)n1 [Example 36, 6-(imidazo[1,2-a]pyridine-3-carbonyl)-N-(3-isopropyl-1-methyl-1H-pyrazol-5-yl)-4,5,6,7-tetrahydrothieno[2,3-c]pyridine-3-carboxamide]
> 7.60 | > 7.60 | 7.30 to 7.60 | CC(C)(C)c1cc(NC(=O)c2csc3c2CCN(C(=O)c2cnc4n2CCOC4)C3)on1 [Example 112, N-(3-(tert-butyl)isoxazol-5-yl)-6-(5,6-dihydro-8H-imidazo[2,1-c][1,4]oxazine-3-carbonyl)-4,5,6,7-tetrahydrothieno[2,3-c]pyridine-3-carboxamide]
> 7.60 | > 7.60 | > 7.60 | CC(C)(C)c1cc(NC(=O)c2csc3c2CCN(C(=O)c2cnc4ccccn24)C3)on1 [Example 34, N-(3-(tert-butyl)isoxazol-5-yl)-6-(imidazo[1,2-a]pyridine-3-carbonyl)-4,5,6,7-tetrahydrothieno[2,3-c]pyridine-3-carboxamide]
